In one assay the target is Syk (Homo sapiens (Human), UniProt P43405). Description: Syk enzyme inhibition, Z-LYTE FRET. It is filed as biochemical. On the procedure: (§1) The enzyme inhibitory activities of compounds disclosed herein are determined by FRET using synthetic peptides labelled with both donor and acceptor fluorophores (Z-LYTE, Invitrogen Ltd., Paisley, UK).
(§2) The inhibitory activities of compounds of the invention against c-Src and Syk enzymes (Invitrogen), are evaluated in a similar fashion to that described hereinabove. The relevant enzyme (3000 ng/mL or 2000 ng/mL respectively, 2.5 μL) is incubated with the test compound (either 4 μg/mL, 0.4 μg/mL, 0.04 μg/mL, or 0.004 μg/mL, 2.5 μL each) for 2 hr at RT. The FRET peptides (8 μM. 2.5 μL), and appropriate ATP solutions (2.5 μL, 800 μM for c-Src, and 60 μM ATP for Syk) are then added to the enzymes/compound mixtures and incubated for 1 hr. Development reagent (protease, 5 μL) is added for 1 hr prior to detection in a fluorescence microplate reader (Varioskan® Flash, ThermoFisher Scientific).
(§3) In all cases, the site-specific protease cleaves non-phosphorylated peptide only and eliminates the FRET signal. Phosphorylation levels of each reaction are calculated using the ratio of coumarin emission (donor) over fluorescein emission (acceptor), for which high ratios indicate high phosphorylation and low ratios indicate low phosphorylation levels. The percentage inhibition of each reaction is calculated relative to non-inhibited control and the 50% inhibitory concentration (IC50 value) is then calculated from the concentration-response curve.

A further assay has as its target p38 MAPKα (Homo sapiens (Human), UniProt Q16539). Description: p38 MAPKα enzyme inhibition (Method 2), Z-LYTE FRET. Type of assay: biochemical. Here is the method: as §1
The inhibitory activities of test compounds against the p38 MAPKα isoform (MAPK14: Invitrogen), are evaluated indirectly by determining the level of activation/phosphorylation of the down-stream molecule, MAPKAP-K2. The p38 MAPKα protein (80 ng/mL, 2.5 μL) is mixed with the test compound (2.5 μL of either 4 μg/mL, 0.4 μg/mL, 0.04 μg/mL or 0.004 μg/mL) for 2 hr at RT. […] The mixture is incubated for 1 hr at RT. Development reagent (protease, […]) is added for 1 hr prior to detection in a fluorescence microplate reader (Varioskan® Flash, ThermoFisher Scientific).
This method follows the same steps as Method 1 above, but utilises a higher concentration of the p38 MAPKα protein (2.5 μL of 200 ng/mL protein instead of 2.5 μL of 80 ng/mL protein) for mixing with the test compound.
as §3

Assay [1] has as its system PBMCs. Description: LPS-induced TNFα/IL-8 release in PBMC cells. Type of assay: cell-based. The following applies: Homo sapiens, LPS-stimulated PBMCs. Here is the method:
Peripheral blood mononuclear cells (PBMCs) from healthy subjects are separated from whole blood using a density gradient (Lymphoprep, Axis-Shield Healthcare). The PBMCs are seeded in 96 well plates and treated with compounds at the desired concentration for 2 hours before addition of 1 ng/mL LPS (Escherichia Coli 0111:B4 from Sigma Aldrich) for 24 hours under normal tissue culture conditions (37° C., 5% CO2). The supernatant is harvested for determination of IL-8 and TNFα concentrations by sandwich ELISA (Duo-set, R&D systems) and read on the fluorescence microplate reader (Varioskan® Flash, ThermoFisher Scientific). The concentration at 50% inhibition (IC50) of IL-8 and TNFα production is calculated from the dose response curve.

The subject of the next assay is HT29 cells. Description: IL-1-induced IL-8 release in HT29 cells. It is filed as cell-based. Conditions: Homo sapiens, HT-29, IL-1β-stimulated HT29 cells, read-out: IC50 Values for Inhibition of Cytokine Release HT29 cells IL-8. Here is the method:
HT29 cells, a human colon adenocarcinoma cell line, are plated in a 96 well plate (24 hrs) and pre-treated with compounds at the desired concentration for 2 hours before addition of 5 ng/mL of IL-1β (Abcam) for 24 hours. Supernatants are harvested for IL-8 quantification by Sandwich ELISA (Duo-set, R&D System). The IC50 is determined from the dose response curve.

Assay [2] relates to PBMCs. Description: IL-2 and IFN gamma release in CD3/CD28 stimulated PBMC cells. Type of assay: cell-based. The following applies: Homo sapiens. On the procedure: PBMCs from healthy subjects are separated from whole blood using a density gradient (Lymphoprep, Axis-Shield Healthcare). Cells are added to a 96 well plate pre-coated with a mixture of CD3/CD38 monoclonal antibodies (0.3 μg/mL eBioscience and 3 μg/mL BD Pharmingen respectively). Compound at the desired concentration is then added to the wells and the plate left for 3 days under normal tissue culture conditions. Supernatants are harvested and IL-2 and IFN gamma release determined by Sandwich ELISA (Duo-set, R&D System). The IC50 is determined from the dose response curve.

A further assay concerns d-U937 cells. Description: LPS-induced TNFα/IL-8 release in d-U937 cells. Type of assay: cell-based. The following applies: Homo sapiens, dU937, LPS-stimulated d-U937 cells. Here is the method:
U937 cells, a human monocytic cell line, are differentiated to macrophage-type cells by incubation with phorbol myristate acetate (PMA; 100 ng/mL) for 48 to 72 hr. Cells are pre-incubated with final concentrations of test compound for 2 hr and are then stimulated with 0.1 μg/mL of LPS (from E. Coli: 0111:B4, Sigma) for 4 hr. The supernatant is collected for determination of TNFα and IL-8 concentrations by sandwich ELISA (Duo-set, R&D systems). The inhibition of TNFα production is calculated as a percentage of that achieved by 10 μg/mL of BIRB796 at each concentration of test compound by comparison against vehicle control. The relative 50% effective concentration (REC50) is determined from the resultant concentration-response curve. The inhibition of IL-8 production is calculated at each concentration of test compound by comparison with vehicle control. The 50% inhibitory concentration (IC50) is determined from the resultant concentration-response curve.

Another assay deals with GSK3α (Homo sapiens (Human), UniProt P49840). Description: GSK 3α enzyme inhibition (Method 2), Z-LYTE FRET. Type of assay: biochemical. Here is the method: as §1
Sequence of GSK3α (P49840 whole entry, canonical isoform): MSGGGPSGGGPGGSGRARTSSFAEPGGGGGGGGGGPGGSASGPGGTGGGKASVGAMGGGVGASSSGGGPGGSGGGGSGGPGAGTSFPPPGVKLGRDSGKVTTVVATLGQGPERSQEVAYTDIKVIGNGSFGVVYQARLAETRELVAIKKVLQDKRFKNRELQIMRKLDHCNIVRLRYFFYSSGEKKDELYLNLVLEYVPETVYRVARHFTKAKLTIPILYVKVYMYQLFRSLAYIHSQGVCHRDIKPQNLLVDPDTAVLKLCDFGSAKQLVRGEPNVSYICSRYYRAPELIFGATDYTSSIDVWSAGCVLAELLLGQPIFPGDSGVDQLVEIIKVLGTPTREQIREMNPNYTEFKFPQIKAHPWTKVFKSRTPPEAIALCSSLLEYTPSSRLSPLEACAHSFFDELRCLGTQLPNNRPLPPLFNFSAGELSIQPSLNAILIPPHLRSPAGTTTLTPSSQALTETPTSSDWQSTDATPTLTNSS
The inhibitory activities of compounds of the invention against the GSK 3α enzyme isoform (Invitrogen), are evaluated by determining the level of activation/phosphorylation of the target peptide. The GSK3-α protein (500 ng/mL, 2.5 μL) is mixed with the test compound (2.5 μL at either 4 μg/mL, 0.4 μg/mL, 0.04 μg/mL, or 0.004 μg/mL) for 2 hr at RT. The FRET peptide (8 μM, 2.5 μL), which is a phosphorylation target for GSK3α, and ATP (40 μM, 2.5 μL) are then added to the enzyme/compound mixture and the resulting mixture incubated for 1 hr. Development reagent (protease, 5 μL) is added for 1 hr prior to detection in a fluorescence microplate reader (Varioskan® Flash, ThermoFisher Scientific).
as §3
This method follows the same steps as Method 1 above, but utilises a shorter period of mixing of the test compound (105 minutes instead of 2 hours) with the GSK3-α protein.

A further assay deals with c-Src (Homo sapiens (Human), UniProt P12931). Description: c-Src enzyme inhibition, Z-LYTE FRET. It is filed as biochemical. Here is the method: as §1, §2, §3
Sequence of c-Src (P12931 whole entry, looked up): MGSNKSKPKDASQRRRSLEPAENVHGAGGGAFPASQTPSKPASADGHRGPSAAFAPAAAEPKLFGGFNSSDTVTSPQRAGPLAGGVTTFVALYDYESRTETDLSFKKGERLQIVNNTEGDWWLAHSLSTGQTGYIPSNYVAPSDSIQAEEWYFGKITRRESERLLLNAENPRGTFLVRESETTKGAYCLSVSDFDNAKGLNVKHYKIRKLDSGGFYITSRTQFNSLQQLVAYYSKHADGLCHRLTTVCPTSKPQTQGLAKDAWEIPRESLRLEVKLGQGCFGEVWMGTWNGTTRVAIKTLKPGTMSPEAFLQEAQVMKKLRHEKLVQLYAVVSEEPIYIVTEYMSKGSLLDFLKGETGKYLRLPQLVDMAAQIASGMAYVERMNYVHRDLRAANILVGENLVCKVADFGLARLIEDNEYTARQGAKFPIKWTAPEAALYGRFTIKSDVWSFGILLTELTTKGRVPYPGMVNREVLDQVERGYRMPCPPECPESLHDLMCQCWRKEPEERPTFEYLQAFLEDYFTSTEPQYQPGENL
Where [3] appears, read: IL-8, read-out: IC50 Values for Inhibition of Cytokine Release PBMCs IL-8.
[4] abbreviates: IFNγ, read-out: IC50 Values for Inhibition of Cytokine Release PBMCs IFNγ.
Where [5] appears, read: IL-2, read-out: IC50 Values for Inhibition of Cytokine Release PBMCs IL-2.
Where [6] appears, read: IL-8, read-out: IC50 Values for Inhibition of Cytokine Release dU937 cells IL-8.
[7] abbreviates: TNFα (method describes REC50 relative to BIRB796), read-out: IC50 Values for Inhibition of Cytokine Release dU937 cells TNFα.

A word on the IC50: it is the midpoint of a concentration-inhibition curve.

Like-named read-outs stand apart in the source and are kept apart here.

Sequence of p38 MAPKα (Q16539 whole entry, canonical isoform): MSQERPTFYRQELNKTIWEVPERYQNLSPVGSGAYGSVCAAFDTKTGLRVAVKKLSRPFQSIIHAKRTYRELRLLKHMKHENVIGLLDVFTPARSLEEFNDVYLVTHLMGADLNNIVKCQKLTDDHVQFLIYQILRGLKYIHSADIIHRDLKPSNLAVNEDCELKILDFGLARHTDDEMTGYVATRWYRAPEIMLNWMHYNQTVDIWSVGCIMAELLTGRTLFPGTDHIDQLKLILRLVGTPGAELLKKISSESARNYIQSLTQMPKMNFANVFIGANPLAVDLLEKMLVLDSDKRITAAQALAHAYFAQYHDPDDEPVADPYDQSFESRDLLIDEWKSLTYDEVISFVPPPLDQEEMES

With `C#CC(C)(C)c1cc(NC(=O)Nc2ccc(Oc3ccnc(Nc4cc(C(=O)NCCN5CCOCC5)cc(C(F)(F)F)c4)n3)c3ccccc23)n(-c2ccc(C)cc2)n1` [Example 12, 3-((4-((4-(3-(3-(2-Methylbut-3-yn-2-yl)-1-(p-tolyl)-1H-pyrazol-5-yl)ureido)naphthalen-1-yl)oxy)pyrimidin-2-yl)amino)-N-(2-morpholinoethyl)-5-(trifluoromethyl)benzamide], the 50% inhibitory concentration (IC50) at Syk amounted to 275 nM; on p38 MAPKα, 214 nM; in the assay on PBMCs [1] (setting [3]), 2.1 nM; in the assay on HT29 cells it was 3.7 nM; in the assay with PBMCs [2] (setting [4]), 2.6 nM; with PBMCs [2] (setting [5]), 171 nM. The IC50 in the assay on d-U937 cells (setting [6]) turned out to be 1.2 nM; at GSK3α, 2310 nM; on c-Src, 74 nM.
Consider `C#Cc1cc(Nc2nccc(Oc3ccc(NC(=O)Nc4cc(C(C)(C)C#C)nn4-c4ccc(C)cc4)c4ccccc34)n2)cc(C(=O)NCCN2CCOCC2)c1` [Example 15, 3-Ethynyl-5-((4-((4-(3-(3-(2-methylbut-3-yn-2-yl)-1-(p-tolyl)-1H-pyrazol-5-yl)ureido)naphthalen-1-yl)oxy)pyrimidin-2-yl)amino)-N-(2-morpholinoethyl)benzamide], for which the IC50 at Syk is 40 nM; at p38 MAPKα it was 67 nM; in the assay on PBMCs [1] (setting [3]), 0.8 nM; with HT29 cells, 2.5 nM; in the assay on PBMCs [2] (setting [4]), 2.4 nM; in the assay on PBMCs [2] (setting [5]), 69.3 nM. Besides, the IC50 in the assay with d-U937 cells (setting [6]) worked out at 1.3 nM; against GSK3α it was 3590 nM; at c-Src, 16 nM.
Take `C#CC(C)(C)c1cc(NC(=O)Nc2ccc(Oc3ccnc(Nc4ccc5c(c4)NC(=O)C5)n3)c3ccccc23)n(-c2ccc(C)cc2)n1` [Example 3, 1-(3-(2-Methylbut-3-yn-2-yl)-1-(p-tolyl)-1H-pyrazol-5-yl)-3-(4-((2-((2-oxoindolin-6-yl)amino)pyrimidin-4-yl)oxy)naphthalen-1-yl)urea]: the IC50 at Syk stood at 113 nM; at p38 MAPKα, 87 nM; in the assay with PBMCs [1] (setting [3]), 2.1 nM; with HT29 cells, 6 nM; in the assay on PBMCs [2] (setting [5]) it was 0.7 nM; in the assay with d-U937 cells (setting [6]), 4.4 nM. Besides, the results for the concentration for half-maximal inhibition (IC50) with d-U937 cells (setting [7]), against GSK3α and against c-Src were 2.8 nM, above 10000 nM and 203 nM, respectively.
Consider `C#CC(C)(C)c1cc(NC(=O)Nc2ccc(Oc3ccnc(Nc4ccccc4)n3)c3ccccc23)n(-c2ccc(C)cc2)n1` [Example 1, 1-(3-(2-Methylbut-3-yn-2-yl)-1-(p-tolyl)-1H-pyrazol-5-yl)-3-(4-((2-(phenylamino)pyrimidin-4-yl)oxy)naphthalen-1-yl)urea], for which the 50% inhibitory concentration (IC50) was above 1000 nM on Syk; 85 nM against p38 MAPKα; 1.6 nM in the assay with PBMCs [1] (setting [3]); 2.5 nM in the assay on PBMCs [1] (TNFα, assay (b), read-out: IC50 for inhibition of TNFα release in PBMCs); 3.2 nM with d-U937 cells (setting [6]); 1.4 nM with d-U937 cells (setting [7]). The results for the IC50 on GSK3α and at c-Src were above 10000 nM and 60 nM, respectively.
With `C#CC(C)(C)c1cc(NC(=O)Nc2ccc(Oc3ccnc(Nc4cc(OC(F)(F)F)cc(C(=O)NCCN5CCOCC5)c4)n3)c3ccccc23)n(-c2ccc(C)cc2)n1` [Example 14, 3-((4-((4-(3-(3-(2-Methylbut-3-yn-2-yl)-1-(p-tolyl)-1H-pyrazol-5-yl)ureido)naphthalen-1-yl)oxy)pyrimidin-2-yl)amino)-N-(2-morpholinoethyl)-5-(trifluoromethoxy)benzamide], the IC50 was found to be 203 nM on Syk; 273 nM at p38 MAPKα; 1.4 nM with PBMCs [1] (setting [3]); 3.6 nM in the assay on HT29 cells; 2 nM in the assay with PBMCs [2] (setting [4]); 170 nM with PBMCs [2] (setting [5]). Also, the IC50 is 1.8 nM with d-U937 cells (setting [6]), 5440 nM on GSK3α and 37 nM against c-Src.

Source of the values: US9790209B2, “Kinase inhibitors” (Respivert Limited, priority 2012, dated 2017).
